{"source": "paper PMC7764601", "about": "(Molecules, 2020)", "key": {"mice [1]": {"tested_on": "mice", "test": "“Writhing” test in mice (phenylbenzoquinone)", "format": "in vivo", "conditions": "for Mean no. of writhing ± SEM: i.p.", "description": "(§1) The experiments were carried out on male albino Swiss mice (body weight 18–26 g). All of the animals were housed at constant humidity (60%) and temperature (25 °C) and kept on a 12 h light/dark cycle. Animals were fed a standard pellet diet with free access to tap water. All procedures were conducted according to Animal Care and Use Committee guidelines, and approved by the Ethical Committee of Jagiellonian University, Kraków.\n(§2) Control and experimental groups consisted of 6–8 animals each. The investigated compounds were administered intraperitoneally as a suspension in 0.5% methylcellulose in a constant volume of 10 mL/kg.\n(§3) The statistical significance was calculated using a Student’s t-test. The ED50 values and their confidence limits were calculated according to the method of Litchfield and Wilcoxon.\n(§4) Pain reactivity was measured in two tests: “hot plate” test (according to the method of Eddy and Leimbach) and “writhing” test in mice (according to Hendershot and Forsaith).\nThen, after 25 min, the irritant (phenylbenzoquinone, 0.02% solution, ethanol-water, 5:95) was also administered intraperitoneally in a constant volume of 0.25 mL. Five min after the application of the irritant,a 10 min long period of observation started, in which the number of writhing episodes was counted.\nThe analgesic effect of individual doses was expressed in percent:(1) % Analgesic effect=100−∑ of writing incidents in experimental group/∑ of writhing incidents in control group×100"}, "mice [2]": {"tested_on": "mice", "test": "“Hot plate” test in mice", "format": "in vivo", "conditions": "for Time of Reaction to Pain Stimulus (s) ± SEM: hot plate, mice", "description": "as §1, §2, §3, §4\nAnimals were placed individually on the metal plate, heated to 55 ± 1 °C. The latency time (s) to the pain reaction (licking of the hind paws or jumping) was recorded by a stop-watch. A cutoff time of 45 s was used to prevent tissue damage."}, "mice [3]": {"tested_on": "mice", "conditions": "compounds obtained previously (series 1 and 2); cited from earlier work"}, "mice [4]": {"tested_on": "mice", "parameters": "method as in PMID 11234340, PMID 12484538, PMID 15652370", "conditions": "series 1, cited from earlier work"}, "mice [5]": {"tested_on": "mice", "parameters": "method as in PMID 11234340, PMID 12484538, PMID 15652370", "conditions": "cited from earlier work; for % Inh. of locomotor activity: series 1; for ED50, influence on the locomotor activity: imides described previously (series 1)"}, "[6]": {"conditions": "Mus musculus, ip, 0.5 h, read-out: Prolonged Time (%)"}}, "note": "Like-named read-outs stand apart in the source and are kept apart here. Marks after values point to notes of the source that are not given here."}
{"smiles": "CC(=O)Oc1ccccc1C(=O)O", "note": "[ASA, Acetylicacid, reference compound]", "values": [{"measurement": "ED50", "setting": "mice [1]; Mus musculus, ip, confidence limits in parentheses, read-out: ED50 (mg/kg) ± SEM, writhing test", "value": 39.1, "unit": "mg/kg"}, {"measurement": "Mean no. of writhing ± SEM", "setting": "mice [1]; dose 30 mg/kg", "value": "11.2 ± 2.1"}, {"measurement": "Mean no. of writhing ± SEM", "setting": "mice [1]; dose 50 mg/kg", "value": "8.5 ± 1.3"}, {"measurement": "Mean no. of writhing ± SEM", "setting": "mice [1]; dose 100 mg/kg", "value": "3.2 ± 1.1"}, {"measurement": "change in vivo at 100 mg/kg", "setting": "mice [2]; [6]", "value": 11.7, "unit": "%"}, {"measurement": "change in vivo at 200 mg/kg", "setting": "mice [2]; [6]", "value": 35.2, "unit": "%"}, {"measurement": "change in vivo at 400 mg/kg", "setting": "mice [2]; [6]", "value": 116, "unit": "%"}, {"measurement": "ED50", "setting": "mice [2]; Mus musculus, read-out: ED50, hot plate test", "value": 267, "unit": "mg/kg"}, {"measurement": "Time of Reaction to Pain Stimulus (s) ± SEM", "setting": "mice [2]; dose 100 mg/kg", "value": "16.2 ± 4.9", "unit": "s"}, {"measurement": "Time of Reaction to Pain Stimulus (s) ± SEM", "setting": "mice [2]; dose 200 mg/kg", "value": "19.6 ± 4.1", "unit": "s"}, {"measurement": "Time of Reaction to Pain Stimulus (s) ± SEM", "setting": "mice [2]; dose 400 mg/kg", "value": "31.3 ± 1.2", "unit": "s"}]}
{"smiles": "COc1nc(C)cc2c1C(=O)N(CCCN1CCN(c3ccccc3)CC1)C2=O", "note": "[Compound 1H]", "values": [{"measurement": "ED50, writhing test", "setting": "mice [3]", "value": 1.03, "unit": "mg/kg"}, {"measurement": "Thiopental Anesthesia % Prolong.", "setting": "mice [4]; dose 25 mg/kg", "value": 118, "unit": "%"}, {"measurement": "Thiopental Anesthesia % Prolong.", "setting": "mice [4]; dose 50 mg/kg", "value": 194, "unit": "%"}, {"measurement": "% Inh. of locomotor activity", "setting": "mice [5]; dose 12.5 mg/kg", "value": 47.67, "unit": "%"}, {"measurement": "% Inh. of locomotor activity", "setting": "mice [5]; dose 25 mg/kg", "value": 53.84, "unit": "%"}, {"measurement": "% Inh. of locomotor activity", "setting": "mice [5]; dose 50 mg/kg", "value": 66.55, "unit": "%"}, {"measurement": "ED50, influence on the locomotor activity", "setting": "mice [5]", "value": 15.17, "unit": "mg/kg"}]}
{"smiles": "COc1nc(C)cc2c1C(=O)N(CN1CCN(c3ccccc3)CC1)C2=O", "note": "[Compound 1K]", "values": [{"measurement": "ED50, writhing test", "setting": "mice [3]", "value": 2.55, "unit": "mg/kg"}, {"measurement": "Thiopental Anesthesia % Prolong.", "setting": "mice [4]; dose 2.25 mg/kg", "value": 134.1, "unit": "%"}, {"measurement": "Thiopental Anesthesia % Prolong.", "setting": "mice [4]; dose 4.5 mg/kg", "value": 199.1, "unit": "%"}, {"measurement": "% Inh. of locomotor activity", "setting": "mice [5]; dose 2.25 mg/kg", "value": 49.23, "unit": "%"}, {"measurement": "% Inh. of locomotor activity", "setting": "mice [5]; dose 4.5 mg/kg", "value": 61.77, "unit": "%"}, {"measurement": "ED50, influence on the locomotor activity", "setting": "mice [5]", "value": 2.28, "unit": "mg/kg"}]}
{"smiles": "COc1ccccc1N1CCN(CN2C(=O)c3cc(C)nc(OC)c3C2=O)CC1", "note": "[Compound 1L]", "values": [{"measurement": "ED50, writhing test", "setting": "mice [3]", "value": 6.53, "unit": "mg/kg"}, {"measurement": "Thiopental Anesthesia % Prolong.", "setting": "mice [4]; dose 12.5 mg/kg", "value": 111.6, "unit": "%"}, {"measurement": "Thiopental Anesthesia % Prolong.", "setting": "mice [4]; dose 25 mg/kg", "value": 133.2, "unit": "%"}, {"measurement": "Thiopental Anesthesia % Prolong.", "setting": "mice [4]; dose 50 mg/kg", "value": 184.3, "unit": "%"}, {"measurement": "% Inh. of locomotor activity", "setting": "mice [5]; dose 12.5 mg/kg", "value": 37.81, "unit": "%"}, {"measurement": "% Inh. of locomotor activity", "setting": "mice [5]; dose 25 mg/kg", "value": 40.84, "unit": "%"}, {"measurement": "% Inh. of locomotor activity", "setting": "mice [5]; dose 50 mg/kg", "value": 68.25, "unit": "%"}, {"measurement": "ED50, influence on the locomotor activity", "setting": "mice [5]", "value": 25.2, "unit": "mg/kg"}]}
{"smiles": "COc1nc(C)cc2c1C(=O)N(CCCCN1CCc3ccccc3C1)C2=O", "note": "[Compound 1N]", "values": [{"measurement": "ED50, writhing test", "setting": "mice [3]", "value": 0.72, "unit": "mg/kg"}, {"measurement": "Thiopental Anesthesia % Prolong.", "setting": "mice [4]; dose 23 mg/kg", "value": 100.0, "unit": "%"}, {"measurement": "Thiopental Anesthesia % Prolong.", "setting": "mice [4]; dose 46 mg/kg", "value": 286.5, "unit": "%"}, {"measurement": "% Inh. of locomotor activity", "setting": "mice [5]; dose 46 mg/kg", "value": "87.48 * %"}]}
{"smiles": "COc1nc(C)cc2c1C(=O)N(CCCCN1CCN(c3ccccc3)CC1)C2=O", "note": "[Compound 1P]", "values": [{"measurement": "ED50, writhing test", "setting": "mice [3]", "value": 4.5, "unit": "mg/kg"}, {"measurement": "Thiopental Anesthesia % Prolong.", "setting": "mice [4]; dose 50 mg/kg", "value": 140.25, "unit": "%"}, {"measurement": "Thiopental Anesthesia % Prolong.", "setting": "mice [4]; dose 100 mg/kg", "value": 242.13, "unit": "%"}, {"measurement": "% Inh. of locomotor activity", "setting": "mice [5]; dose 50 mg/kg", "value": 67.14, "unit": "%"}, {"measurement": "% Inh. of locomotor activity", "setting": "mice [5]; dose 100 mg/kg", "value": 86.10, "unit": "%"}]}
